The text below walks through data of patent US10021877B2, “Substituted 5-hydroxy-2,3-diphenylpentanonitrile derivatives, processes for their preparation and their use as herbicides and/or plant growth regulators” (BAYER CROPSCIENCE AKTIENGESELLSCHAFT, priority 2013, dated 2018).

The assay has as its system PHBPU=Pharbitis purpurea. The assay can be described thus: Biological tests (herbicidal action) against PHBPU. The settings on record: application rate 320 g/ha. Format: in vivo. An excerpt: Seeds of monocotyledonous and dicotyledonous weed plants and crop plants were placed in wood-fibre pots in sandy loam and covered with soil. The compounds (I) according to the invention, formulated in the form of wettable powders (WP), were then applied as aqueous suspension or emulsion at a water application rate of 600 l/ha (converted) with the addition of 0.2% of wetting agent to the surface of the covering soil.
After the treatment, the pots were placed in a greenhouse and kept under good growth conditions for the test plants. After about 3 weeks, the effect was scored visually in comparison with untreated controls as percentages. For example, 100% activity=the plants have died, 50% herbicidal activity or damage=the plants have been reduced by 50% or the plant mass has been reduced by 50%, 0% activity=like control plants.
Seeds of monocotyledonous and dicotyledonous weeds and crop plants were placed in sandy loam in wood-fibre pots, covered with soil and cultivated in a greenhouse under good growth conditions. […]
What was determined was the respective herbicidal activity, in each case at the same point in time after application of the formulation in question. i.e. the damage to the respective harmful plant in %.

As for `CC(=O)OCCC(c1cc(F)ccc1F)C(C#N)c1ccc(F)c(Br)c1` (mixture of isomers) [Ibb52], the “herbicidal activity against PHBPU” value worked out at 100%. With `N#C[C@@H](c1cccc(F)c1)[C@@H](CCO)c1ccc(Cl)cc1` [threo-1-Iba354], the “herbicidal activity against PHBPU” value is on record as 80%.
